Measured values from patent US20110039846A1, “IMINOPYRIDINE DERIVATIVES AND USE THEREOF” (TAKEDA PHARMACEUTICAL COMPANY LIMITED, priority 2008, published 2011).
Counter-ions that a name gives are not always drawn.

Biological target: T1, human α1D adrenaline receptor (Homo sapiens, UniProt P25100)
T1 construct: expressed in transfected cells
T1 sequence (P25100 1-572): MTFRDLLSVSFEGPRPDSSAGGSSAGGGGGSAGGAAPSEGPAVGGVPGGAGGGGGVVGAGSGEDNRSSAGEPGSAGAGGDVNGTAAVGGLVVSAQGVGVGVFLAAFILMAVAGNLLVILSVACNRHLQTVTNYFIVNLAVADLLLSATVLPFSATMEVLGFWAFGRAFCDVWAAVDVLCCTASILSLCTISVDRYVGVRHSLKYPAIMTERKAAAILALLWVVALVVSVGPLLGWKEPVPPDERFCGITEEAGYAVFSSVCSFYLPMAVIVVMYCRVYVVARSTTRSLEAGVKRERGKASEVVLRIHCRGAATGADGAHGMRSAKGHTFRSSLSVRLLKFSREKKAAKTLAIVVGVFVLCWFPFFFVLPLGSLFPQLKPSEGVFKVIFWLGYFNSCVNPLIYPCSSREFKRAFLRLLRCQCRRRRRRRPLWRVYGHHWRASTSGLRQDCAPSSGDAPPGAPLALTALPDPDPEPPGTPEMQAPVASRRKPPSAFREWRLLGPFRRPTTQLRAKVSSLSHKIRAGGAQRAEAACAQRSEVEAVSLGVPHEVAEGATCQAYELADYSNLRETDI
Assay: Measurement of α1D adrenaline receptor binding inhibitory activity ([3H] prazosin binding to membrane fraction of CHO-K1 cells expressing the receptor)
Conditions: α1D adrenaline receptor binding inhibitory rate at 1 μM compound; [3H] prazosin 2.5 nM; CHO-K1 membrane fraction 20 μg/well; room temperature 1 hr
Procedure: Measurement of α1D Adrenaline Receptor Binding Inhibitory Activity
Genetic manipulation methods described below are based on the methods described in Maniatis et al., Molecular Cloning, Cold Spring Harbor Laboratory, 1989, the protocol appended to a reagent and the like.
α1D Adrenaline receptor gene was cloned from human liver cDNA by the PCR method. PCR reaction was performed by Gene Amp PCR System 9700 (Applied Biosystems) with 50 pmol each of the primer set 5′-[…]-3′ [SEQ ID NO: 1] and 5′-[…]-3′ [SEQ ID NO: 2] prepared in reference to the base sequence of the α1D adrenaline receptor gene reported by DEBRA A. et al. (J. Pharmacol. Exp. Ter., 272, 134-142 (1995)), 200 ng of human brain hippocampus cDNA library (Takara Shuzo Co., Ltd.) as a template and TaKaRa LA-Taq DNA Polymerase (Takara Shuzo Co., Ltd.) (reaction conditions: 45 cycles of 94° C. for 15 sec, 68° C. for 3.5 min).
The PCR fragment obtained above was digested with restriction enzymes NheI (Takara Shuzo Co., Ltd.) and Kpn I (Takara Shuzo Co., Ltd.), and applied to agarose gel electrophoresis to recover DNA fragments. The DNA fragments were ligated with animal cell expression plasmid pcDNA3.1/Zeo (Invitrogen) digested with NheI and Kpn I, by DNA Ligation Kit Ver.2 (Takara Shuzo Co., Ltd.), and transformed the competent cells of Escherichia coli JM109 to obtain plasmid, pcDNA3.1/Zeo-Adreα1D.
CHO-K1 cells passage cultured in HamF12 medium (Invitrogen) containing 10% fetal bovine serum (TRACE SCIENCETIFIC) in a 150 cm^2 culture flask (Corning Coaster) were detached with 0.5 g/L trypsin-0.2 g/L EDTA (Invitrogen), and the cells were washed with D-PBS(−) (Invitrogen) and centrifuged (1000 rpm, 5 min). Then, using Gene Pulser II (BioRad), DNA was introduced into the cells under the following conditions. 1×10^7 cells suspended in D-PBS(−) (700 μl) and 10 μg of pcDNA3.1/Zeo-Adreα1D were added in a 0.4 cm gap cuvette (BioRad), and electroporation was performed under voltage 0.25 kV, capacitance 960 μF. The cells were cultured in HamF12 medium containing 10% fetal bovine serum and 250 μg/mL Zeocin (Invitrogen) and the Zeocin resistance clones were selected.
Plurality of Zeocin resistance clones were selected and cultured in a cell culture flask (150 cm^2) until semiconfluent, and the cellular membrane fraction was prepared as follows.
The semiconfluent cells were detached with 0.02% EDTA containing D-PBS(−) and recovered by centrifugation. The cells were suspended in membrane preparation buffer (10 mM NaHCO3 pH 7.4, protease inhibitor cocktail (Roche)) and disrupted by 3 times of treatment in a polytron homogenizer (model PT-3100, KINEMATICA AG) at 20000 rpm for 20 seconds. After disruption, the cells were centrifuged at 2000 rpm for 10 min and the supernatant containing membrane fractions was obtained. The supernatant was centrifuged using an ultracentrifuge (model L8-70M, rotor 70 Ti, Beckman Instruments) at 30000 rpm for 1 hr to obtain a precipitate containing membrane fractions. The obtained membrane fraction of each clone was subjected to the binding experiment shown below.
The membrane fraction (20 μg/well) and [^3H] prazosin (2.5 nM, PerkinElmer Lifescience), as a ligand, were diluted with a binding assay buffer (50 mM Tris-HCl, 10 mM MgCl2, 0.5% BSA, protease inhibitor cocktail pH 7.5), added to a 96 well microplate, and reacted at room temperature for 1 hr. For the measurement of non-specific binding, phentolamine (Sigma) was further added to 10 μM. Then, the reaction mixture was filtered and transferred to unifilter GF/C (PerkinElmer Lifescience) by using a cell harvester (PerkinElmer Lifescience). The filter was washed 3 times with ice-cooled 50 mM Tris buffer (pH 7.5). After drying the filter, MicroScinti 0 (PerkinElmer Lifescience) was added to the filter and the radioactivity was measured by TopCount (PerkinElmer Lifescience). […]

| Structure (SMILES) | inhibition at 1 µM |
| --- | --- |
| N=c1c(C(N)=O)cc(Cl)cn1Cc1cc(Cl)ccc1N1CCCC1=O [Example 35, 5-chloro-1-[5-chloro-2-(2-oxopyrrolidin-1-yl)benzyl]-2-imino-1,2-dihydropyridine-3-carboxamide hydrochloride] | 89% |
| CCS(=O)(=O)c1ccc(F)cc1Cn1cc(Cl)cc(C(N)=O)c1=N [Example 24, 5-chloro-1-[2-(ethylsulfonyl)-5-fluorobenzyl]-2-imino-1,2-dihydropyridine-3-carboxamide hydrochloride] | 98.4% |
| CS(=O)(=O)c1cc(Cl)cc(Cn2cc(Cl)cc(C(N)=O)c2=N)c1 [Example 12, 5-chloro-1-[3-chloro-5-(methylsulfonyl)benzyl]-2-imino-1,2-dihydropyridine-3-carboxamide hydrochloride] | 87.5% |
| C[S+]([O-])c1ccc(Cl)cc1Cn1cc(Cl)cc(C(N)=O)c1=N (stereo not shown) [Example 14, 5-chloro-1-[5-chloro-2-(methylsulfinyl)benzyl]-2-imino-1,2-dihydropyridine-3-carboxamide hydrochloride] | 92% |

The remaining lines, values ahead:

| inhibition at 1 µM | Structure (SMILES) |
| --- | --- |
| 93.5% | Cc1ccc(S(C)(=O)=O)c(Cn2cc(Cl)cc(C(N)=O)c2=N)c1 [Example 8, 5-chloro-2-imino-1-[5-methyl-2-(methylsulfonyl)benzyl]-1,2-dihydropyridine-3-carboxamide hydrochloride] |
| 100% | CCS(=O)(=O)c1ccc(Cl)cc1Cn1cc(Cl)cc(C(N)=O)c1=N [Example 17, 5-chloro-1-[5-chloro-2-(ethylsulfonyl)benzyl]-2-imino-1,2-dihydropyridine-3-carboxamide hydrochloride] |
| 93.5% | CS(=O)(=O)c1ccc(F)cc1Cn1cc(Cl)cc(C(N)=O)c1=N [Example 18, 5-chloro-1-[5-fluoro-2-(methylsulfonyl)benzyl]-2-imino-1,2-dihydropyridine-3-carboxamide hydrochloride] |
| 91.2% | N=c1c(C(N)=O)cc(Cl)cn1Cc1cc(Cl)ccc1S(N)(=O)=O [Example 28, 5-chloro-1-(5-chloro-2-sulfamoylbenzyl)-2-imino-1,2-dihydropyridine-3-carboxamide hydrochloride] |
| 72.8% | CS(=O)(=O)c1cc(Cn2cc(Cl)cc(C(N)=O)c2=N)ccc1Cl [Example 15, 5-chloro-1-[4-chloro-3-(methylsulfonyl)benzyl]-2-imino-1,2-dihydropyridine-3-carboxamide hydrochloride] |
| 100% | CS(=O)(=O)c1ccc(Cl)cc1Cn1cc(Cl)cc(C(N)=O)c1=N [Example 1, 5-chloro-1-[5-chloro-2-(methylsulfonyl)benzyl]-2-imino-1,2-dihydropyridine-3-carboxamide hydrochloride] |
